From patent publication US20100316738A1, “METHODS OF INHIBITING, PREVENTING, KILLING AND/OR REPELLING INSECTS USING SIMULATED BLENDS OF CHENOPODIUM EXTRACTS” (priority 2009, published 2010)
Where “and” joins values, the source holds several entries; their conditions need not be identical. Equal entries are not always repeated.

Test system: lepidoptera eggs (Spodoptera exigua)
Assay: Direct contact overlay LC assay, caterpillar eggs
Settings: for Times more active in the C13 blend than when tested alone: LC50 alone vs share of C13 LC50 (1% solution); for Direct AVG LC50 / Estimated LC50: mortality after five days; for Direct AVG LC50: diluent 0.25% Tween 81; for Estimated LC50: nested set, probit analysis, tested alone in 0.25% Tween 81
Source text: The objective of this study was to evaluate the effects of synthetic blend-based composition C13 and each of its primary terpenes against lepidoptera eggs (Spodoptera exigua) in a laboratory assay that mimics contact activity on a leaf surface in the field. This was done by estimating the LC50 of the solvent/carrier (in this instance, vegetable oil) and the three primary terpenes alone, and comparing those values to the estimated LC50 of C13.
A requirement of the Probit model used to estimate the LC50 is that there should be a dose response with two rates above 50% mortality and two rates below 50%. Because of their solubility it was not possible to get this with a neat solution of oil or terpenes so, a series of preliminary assays were conducted to find a suitable carrier, testing solutions compatible with the terpenes and carrier. To achieve a stable emulsion of the individual terpenes that could be pipetted across a suitable range of concentrations, it was decided to use a universal diluent containing 0.25% Tween™ 81.
Stock solutions were transferred to deep, 96-well, micro-titre plates. 1.4 ml of each stock solution was placed in the 2 ml wells that ran across the top row of the deep well plate (Row A; wells 1-12, see Table 15). A digital 12-channel Matrix pipette was then used to add 700 uls of 0.25% Tween 81 in deionized water (DI H2O) to the remaining wells (Rows B-H; 1-12). The 12 channel pipette was used to perform serial dilutions by mixing, aspirating, and then dispensing 700 ul of each stock solution from row A into the adjoining 700 ul of diluent in row B. This process was repeated seven times to give a final concentration of eight, 50% serially diluted samples containing 700 μl.
An eight channel Matrix pipette was then used to mix, aspirate and distribute all eight of the serial dilutions from the deep well plate to a labeled 96 well plate containing a wheat germ/casein-based artificial diet. Aliquots containing 240 μl of each dilution were aspirated and 40 μl were dispensed into to six wells across the surface of the micro-titre plate containing 200 μl of artificial diet/well. Two samples were tested on every plate with the one sample in rows A through H—columns 1 to 6, and the second sample in wells A through H columns 7 to 12. The last two samples in each assay contain the Javelin standard and 0.25% Tween in DI water as the untreated controls.
The samples were then dried under forced air at room temperature. This deposits a thin film of the treatment on the surface of the diet much the same way as applying a spray solution to a leaf surface. Once the plates were dried, then eggs were put in each well using a Matrix pipette with 5-10 temporally synchronized caterpillar eggs suspended in 20 μl of a 0.1% agar solution. This rehydrates the surface film and then the egg:agar was dried under forced air, a second time. Once the agar solution was dry the plates were heat sealed with a perforated Mylar film that seals the insects in the well, but allows for gas exchange. The plates were incubated at 28° C. on a 16:8 light:dark cycle. After five days the numbers of live insects in each row were recorded. Mortality was recorded as the number dead over the number treated and expressed as control corrected percent mortality.

`C=C(C)[C@H]1CC=C(C)CC1` [d-limonene] was tested, and the “Times more active in the C13 blend than when tested alone” value was 64 X, the “Direct AVG LC50” value was 2.093% and the “Estimated LC50” value was 1.9% and 1.905%.
In the case of `CC1=CC=C(C(C)C)CC1` [α-terpinene], the “Direct AVG LC50” value is reported as 4.336% and the “Estimated LC50” value is reported as 4.77% and 4.776%.
With `Cc1ccc(C(C)C)cc1` [p-cymene] the “Times more active in the C13 blend than when tested alone” value was 72 X, the “Direct AVG LC50” value was 1.539% and the “Estimated LC50” value was 2.68% and 2.682%.
